ChEMBL document CHEMBL5608195, “Identification and biological evaluation of fused tetrahydroisoquinoline derivatives as Wnt/β-catenin signaling inhibitors to suppress colorectal cancer” (Eur J Med Chem, 2024)
pIC50: −log10 of the molar value.

Columns and labels:
HCT-116 [1] = assay: Antiproliferative activity against human HCT-116 cells assessed as inhibition rate at 20 uM incubated for 24 hrs by MTT assay relative to control; assay type: functional
HCT-116 [2] = assay: Antiproliferative activity against human HCT-116 cells incubated for 24 hrs by MTT assay; assay type: functional, cell-based; conditions: HCT-116, 24 h
RKO = assay: Antiproliferative activity against human RKO cells incubated for 24 hrs by MTT assay; assay type: functional, cell-based

Row | SMILES | inhibition at 20 µM (HCT-116 [1]) | pIC50 (HCT-116 [2]) | pIC50 (RKO)
1 | C[C@]12c3ccc(Cl)cc3CCN1CCc1c2[nH]c2ccc(Cl)cc12 | 81% |  | 
2 | CC12c3ccc(F)cc3CCN1CCc1c2[nH]c2ccc(Cl)cc12 (stereo not drawn) | 88.7% |  | 
3 | CC12c3ccccc3CN1CCc1c2[nH]c2ccc(Cl)cc12 (stereo not drawn) | 43.8% |  | 
4 | CC12c3cc(F)ccc3CC(=O)N1CCc1c2[nH]c2ccc(Cl)cc12 (stereo not drawn) | 49% |  | 
5 | Cc1ccc2[nH]c3c(c2c1)CCN1CCc2cc(Cl)ccc2C31C (stereo not drawn) | 22.8% |  | 
6 | C[C@@]12c3ccc(Cl)cc3CCN1CCc1c2[nH]c2ccc(Cl)cc12 | 84% |  | 
7 | Cc1ccc2c(c1)C1(C)c3[nH]c4ccc(Cl)cc4c3CCN1C2 (stereo not drawn) | 64.6% |  | 
8 | CC12c3ccc(Cl)cc3CC(=O)N1CCc1c2[nH]c2ccc(Cl)cc12 (stereo not drawn) | 70.3% |  | 
9 | CC12c3cc(F)ccc3CCN1CCc1c2[nH]c2ccc(Cl)cc12 (stereo not drawn) | 80.7% |  | 
10 | Cc1ccc2c(c1)CCN1CCc3c([nH]c4ccc(Cl)cc34)C21C (stereo not drawn) | 88.3% | 5.20 | 5.19
11 | CC12c3ccccc3CCN1CCc1c2[nH]c2ccc(F)cc12 (stereo not drawn) | 7.8% |  | 
12 | Cc1ccc2c(c1)C1(C)c3[nH]c4ccccc4c3CCN1C2 (stereo not drawn) | 36% |  | 
13 | CC12c3ccccc3CCN1CCc1c2[nH]c2ccc(Cl)cc12 (stereo not drawn) | 83.7% |  | 
14 | CC12c3ccccc3CCN1CCc1c2[nH]c2ccc(OCc3ccccc3)cc12 (stereo not drawn) | 20.4% |  | 
15 | CC12c3ccc(Cl)cc3CCN1CCc1c2[nH]c2ccc(F)cc12 (stereo not drawn) | 18.4% |  | 
16 | CC12c3ccc(Cl)cc3CCN1CCc1c2[nH]c2ccc(Br)cc12 (stereo not drawn) | 3.6% |  | 
17 | CC12c3ccccc3CCN1CCc1c2[nH]c2ccc(Br)cc12 (stereo not drawn) | 3.6% |  | 
18 | COc1ccc2[nH]c3c(c2c1)CCN1CCc2ccccc2C31C (stereo not drawn) | 10.9% |  | 
19 | COc1ccc2c(c1)C1(C)c3[nH]c4ccc(Cl)cc4c3CCN1CC2 (stereo not drawn) | 77% |  | 
20 | Cc1ccc2[nH]c3c(c2c1)CCN1CCc2ccccc2C31C (stereo not drawn) | 59.5% |  | 
21 | CC12c3ccccc3CC(=O)N1CCc1c2[nH]c2ccccc12 (stereo not drawn) | 65.2% |  | 
22 | COc1ccc2[nH]c3c(c2c1)CCN1Cc2ccccc2C31C (stereo not drawn) | 28.9% |  | 
23 | CC12c3cc(O)ccc3CN1CCc1c2[nH]c2ccc(Cl)cc12 (stereo not drawn) | 26.9% |  | 
24 | Cc1ccc2[nH]c3c(c2c1)CCN1Cc2ccccc2C31C (stereo not drawn) | 43.9% |  | 
25 | CC12c3cc(Cl)ccc3CCN1CCc1c2[nH]c2ccc(Cl)cc12 (stereo not drawn) | 89.1% | 5.17 | 5.16
26 | Cc1ccc2c(c1)C1(C)c3[nH]c4ccc(Cl)cc4c3CCN1CC2 (stereo not drawn) | 92.1% | 5.12 | 5.14
27 | COc1ccc2[nH]c3c(c2c1)CCN1CCc2cc(Cl)ccc2C31C (stereo not drawn) | 66.7% |  | 
